Source: the NIST ThermoML archive (doi:10.1007/s10765-019-2484-6)

Assay: xn = mol fraction of the nth substance listed
Conditions: Gas, Loschmidt cell combined with holographic interferometry

CCC [propane] + O=C=O
Conditions | binary diffusion coefficient [m2/s]
293.24 K, 50 kPa, x1 = 0.5 | 1.89e-05
293.25 K, 100 kPa, x1 = 0.1665 | 8.54e-06
293.25 K, 200 kPa, x1 = 0.1665 | 4.14e-06
293.27 K, 100 kPa, x1 = 0.333 | 8.31e-06
293.27 K, 100 kPa, x1 = 0.833 | 8.29e-06
293.27 K, 500 kPa, x1 = 0.1665 | 1.59e-06
293.28 K, 200 kPa, x1 = 0.333 | 4.12e-06
293.28 K, 200 kPa, x1 = 0.833 | 4.06e-06
293.3 K, 500 kPa, x1 = 0.333 | 1.71e-06
293.31 K, 200 kPa, x1 = 0.4995 | 4.12e-06
293.32 K, 100 kPa, x1 = 0.4995 | 8.23e-06
293.32 K, 500 kPa, x1 = 0.833 | 1.51e-06
293.33 K, 200 kPa, x1 = 0.6665 | 4.06e-06
293.33 K, 500 kPa, x1 = 0.4995 | 1.49e-06
293.36 K, 100 kPa, x1 = 0.6665 | 8.25e-06
293.37 K, 200 kPa, x1 = 0.5 | 4.06e-06
293.39 K, 500 kPa, x1 = 0.5 | 1.54e-06
293.41 K, 500 kPa, x1 = 0.6665 | 1.52e-06
293.47 K, 100 kPa, x1 = 0.5 | 8.23e-06
313.21 K, 200 kPa, x1 = 0.333 | 4.88e-06
313.21 K, 500 kPa, x1 = 0.5 | 1.77e-06
313.22 K, 200 kPa, x1 = 0.5 | 4.77e-06
313.23 K, 100 kPa, x1 = 0.6665 | 9.67e-06
313.23 K, 200 kPa, x1 = 0.833 | 4.77e-06
313.25 K, 100 kPa, x1 = 0.833 | 9.53e-06
313.26 K, 100 kPa, x1 = 0.333 | 9.71e-06
313.26 K, 200 kPa, x1 = 0.6665 | 4.79e-06
313.27 K, 500 kPa, x1 = 0.333 | 1.94e-06
313.27 K, 500 kPa, x1 = 0.6665 | 1.85e-06
313.27 K, 500 kPa, x1 = 0.833 | 1.86e-06
313.28 K, 100 kPa, x1 = 0.1665 | 9.79e-06
313.28 K, 200 kPa, x1 = 0.1665 | 4.8e-06
313.29 K, 200 kPa, x1 = 0.4995 | 4.8e-06
313.31 K, 500 kPa, x1 = 0.1665 | 1.95e-06
313.32 K, 100 kPa, x1 = 0.4995 | 9.71e-06

C [methane] + CCC
Conditions | binary diffusion coefficient [m2/s]
293.09 K, 500 kPa, x2 = 0.659 | 2.12e-06
293.12 K, 500 kPa, x2 = 0.3331 | 2.19e-06
293.12 K, 500 kPa, x2 = 0.492 | 2.07e-06
293.13 K, 500 kPa, x2 = 0.833 | 1.97e-06
293.16 K, 500 kPa, x2 = 0.5 | 2.19e-06
293.18 K, 500 kPa, x2 = 0.159 | 2.36e-06
293.19 K, 50 kPa, x2 = 0.5 | 2.36e-06
293.21 K, 200 kPa, x2 = 0.5 | 5.78e-06
293.29 K, 100 kPa, x2 = 0.5 | 1.18e-05
293.31 K, 100 kPa, x2 = 0.4973 | 1.21e-05
293.31 K, 100 kPa, x2 = 0.6665 | 1.18e-05
293.31 K, 200 kPa, x2 = 0.6665 | 5.81e-06
293.32 K, 100 kPa, x2 = 0.159 | 1.24e-05
293.32 K, 100 kPa, x2 = 0.3335 | 1.18e-05
293.33 K, 100 kPa, x2 = 0.833 | 1.18e-05
293.33 K, 200 kPa, x2 = 0.159 | 6.16e-06
293.33 K, 200 kPa, x2 = 0.3335 | 5.7e-06
293.33 K, 200 kPa, x2 = 0.833 | 5.77e-06
293.34 K, 200 kPa, x2 = 0.498 | 5.81e-06
313.28 K, 500 kPa, x2 = 0.4995 | 2.71e-06
313.52 K, 500 kPa, x2 = 0.832 | 2.73e-06
313.54 K, 500 kPa, x2 = 0.1665 | 2.8e-06
313.55 K, 100 kPa, x2 = 0.8295 | 1.37e-05
313.55 K, 500 kPa, x2 = 0.332 | 2.79e-06
313.55 K, 500 kPa, x2 = 0.5 | 2.72e-06
313.56 K, 100 kPa, x2 = 0.3295 | 1.4e-05
313.56 K, 100 kPa, x2 = 0.4995 | 1.31e-05
313.57 K, 200 kPa, x2 = 0.4995 | 6.73e-06
313.57 K, 200 kPa, x2 = 0.6665 | 6.92e-06
313.58 K, 100 kPa, x2 = 0.159 | 1.52e-05
313.58 K, 200 kPa, x2 = 0.5 | 6.91e-06
313.59 K, 100 kPa, x2 = 0.5 | 1.38e-05
313.59 K, 200 kPa, x2 = 0.3295 | 6.98e-06
313.59 K, 500 kPa, x2 = 0.6665 | 2.76e-06
313.6 K, 100 kPa, x2 = 0.6665 | 1.4e-05
313.6 K, 200 kPa, x2 = 0.159 | 7.39e-06
313.61 K, 200 kPa, x2 = 0.8295 | 6.76e-06
